ChEMBL document CHEMBL3832068, “DailyMed|setid=9ddd37f9-299e-4c98-91ed-deeb72c63b00 | GRIS-PEG - griseofulvin tablet, film coated|State of Florida DOH Central Pharmacy”

Experiments:
[1] = (§1) Mean pharmacokinetic parameters for Griseofulvin following single dose administration of unaltered 250 mg ultramicrocrystalline Griseofulvin tablets, with or without applesauce, to 24 healthy volunteers; assay type: ADME, organism-based; set-up: dose 250 mg, route oral; settings: human, in vivo, dietary status Fasting, dosed compound id 34, dosed compound name GRISEOFULVIN, gender male and female, regimen Single dose, tissue Plasma
Homo sapiens = assay: as §1; assay type: ADME, organism-based; set-up: dose 250 mg, route oral; settings: in vivo, po, dietary status Fasting, dosed compound id 34, dosed compound name GRISEOFULVIN, gender male and female, regimen Single dose, tissue Plasma

- AUC ([1]; po, 250 mg): 8620 ng·h/mL
- Cmax ([1]; po, 250 mg): 601 ng/mL
- Tmax ([1]; dose 250 mg, route oral): 4.04 h
- Tmax (Homo sapiens; dose 250 mg): 3.08 h
- AUC (Homo sapiens): 9023.71 ng·h/mL
- Cmax (Homo sapiens): 672.61 ng/mL
Compound: COC1=CC(=O)C[C@@H](C)[C@]12Oc1c(Cl)c(OC)cc(OC)c1C2=O [GRISEOFULVIN]
